# ChEMBL document CHEMBL1201862, “PubChem BioAssay data set” (2004)
#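 Following 48 hours of exposure in 96-well plates, responses at five concentrations were used to interpolate endpoints linearly. GI50 = concentration required for 50% inhibition of growth.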 Calls of active or inactive are those of the source. Rule as the data show it: active = GI50 up to about 1.1 µM and inactive = higher.
# Experiments:
# Experiment in all cases: inhibition of tumour cell growth, NCI panel, 48 h
# HCT-15 = tested on: HCT-15
# NCI-H23 = tested on: NCI-H23
# SW-620 = tested on: SW-620
# MOLT-4 = tested on: MOLT-4
# KM12 = tested on: KM12
# OVCAR-4 = tested on: OVCAR-4
# MDA-MB-231 = tested on: MDA-MB-231
# K562 = tested on: K562
# 786-0 = tested on: 786-0
# SK-OV-3 = tested on: SK-OV-3
# ACHN = tested on: ACHN
# HOP-92 = tested on: HOP-92
# SN12C = tested on: SN12C
# OVCAR-3 = tested on: OVCAR-3
# MDA-N = tested on: MDA-N
# NCI-H522 = tested on: NCI-H522
# OVCAR-8 = tested on: OVCAR-8
# HOP-62 = tested on: HOP-62
# HL-60 = tested on: HL-60
compound,measurement,setting,value
CCC1OC2C(CC=C(C)C)=C3OC(C)(O)C(C)(CC)C(O)C3=C3OC(=O)C=C1C32 (centres undefined),GI50,HCT-15,33 µM
same,GI50,NCI-H23,21.6 µM (inactive)
same,GI50,SW-620,39.4 µM (inactive)
same,GI50,MOLT-4,24.5 µM (inactive)
same,GI50,KM12,34.7 µM (inactive)
same,GI50,OVCAR-4,36.2 µM (inactive)
same,GI50,MDA-MB-231,19 µM (inactive)
same,GI50,K562,10.8 µM (inactive)
same,GI50,786-0,37.2 µM (inactive)
same,GI50,SK-OV-3,> 100 µM (inactive)
same,GI50,ACHN,38.3 µM (inactive)
same,GI50,HOP-92,17.3 µM (inactive)
COc1c(C)c(C/C=C(\C)CCCCO[Si](C(C)C)(C(C)C)C(C)C)c(OC)c2ccccc12,GI50,HCT-15,> 100 µM
same,GI50,NCI-H23,> 100 µM (inactive)
same,GI50,SW-620,> 100 µM (inactive)
same,GI50,MOLT-4,47.6 µM (inactive)
same,GI50,KM12,> 100 µM (inactive)
same,GI50,OVCAR-4,> 100 µM (inactive)
same,GI50,MDA-MB-231,> 100 µM (inactive)
same,GI50,K562,> 100 µM (inactive)
same,GI50,SN12C,> 100 µM (inactive)
same,GI50,786-0,> 100 µM (inactive)
same,GI50,OVCAR-3,> 100 µM (inactive)
same,GI50,SK-OV-3,> 100 µM (inactive)
same,GI50,MDA-N,> 100 µM (inactive)
same,GI50,NCI-H522,> 100 µM (inactive)
same,GI50,OVCAR-8,> 100 µM (inactive)
same,GI50,ACHN,> 100 µM (inactive)
same,GI50,HOP-92,> 100 µM (inactive)
same,GI50,HOP-62,> 100 µM (inactive)
CN(NC(=O)/C(=C/C=C/c1ccccc1)NC(=O)c1ccccc1)C1=C(Cl)C(=O)[N+](c2ccccc2)=CC1,GI50,HCT-15,24.2 µM
same,GI50,NCI-H23,35.4 µM (inactive)
same,GI50,SW-620,16.4 µM (inactive)
same,GI50,MOLT-4,24.3 µM (inactive)
same,GI50,KM12,16.7 µM (inactive)
same,GI50,OVCAR-4,22.4 µM (inactive)
same,GI50,MDA-MB-231,18.4 µM (inactive)
same,GI50,K562,19.9 µM (inactive)
same,GI50,SN12C,24.8 µM (inactive)
same,GI50,786-0,19.4 µM (inactive)
same,GI50,OVCAR-3,20.8 µM (inactive)
same,GI50,SK-OV-3,> 100 µM (inactive)
same,GI50,MDA-N,18.2 µM (inactive)
same,GI50,NCI-H522,23.3 µM (inactive)
same,GI50,OVCAR-8,21.1 µM (inactive)
same,GI50,ACHN,26.7 µM (inactive)
same,GI50,HOP-92,20.5 µM (inactive)
same,GI50,HOP-62,21.7 µM (inactive)
CSC1(CC(=O)N(C)C)C(=O)Nc2ccccc21 (centres undefined),GI50,HCT-15,> 100 µM
same,GI50,NCI-H23,> 100 µM (inactive)
same,GI50,SW-620,> 100 µM (inactive)
same,GI50,MOLT-4,> 100 µM (inactive)
same,GI50,KM12,> 100 µM (inactive)
same,GI50,OVCAR-4,> 100 µM (inactive)
same,GI50,K562,> 100 µM (inactive)
same,GI50,786-0,> 100 µM (inactive)
same,GI50,OVCAR-3,> 100 µM (inactive)
same,GI50,SK-OV-3,> 100 µM (inactive)
same,GI50,ACHN,> 100 µM (inactive)
same,GI50,HOP-62,> 100 µM (inactive)
CC1=NN(c2nc(N)nc(CC#N)n2)C(C)(C)C1,GI50,HCT-15,> 100 µM
same,GI50,NCI-H23,> 100 µM (inactive)
same,GI50,SW-620,> 100 µM (inactive)
same,GI50,HL-60,> 100 µM (inactive)
same,GI50,MOLT-4,> 100 µM (inactive)
same,GI50,KM12,> 100 µM (inactive)
same,GI50,OVCAR-4,> 100 µM (inactive)
same,GI50,MDA-MB-231,> 100 µM (inactive)
same,GI50,K562,> 100 µM (inactive)
same,GI50,786-0,> 100 µM (inactive)
same,GI50,SK-OV-3,> 100 µM (inactive)
same,GI50,OVCAR-8,> 100 µM (inactive)
same,GI50,ACHN,> 100 µM (inactive)
same,GI50,HOP-92,> 100 µM (inactive)
same,GI50,HOP-62,> 100 µM (inactive)
CCOP(=O)(OCC)/C(C#N)=C/c1ccnc2ccccc12,GI50,HCT-15,21.3 µM
same,GI50,NCI-H23,24.3 µM (inactive)
same,GI50,SW-620,27.3 µM (inactive)
same,GI50,MOLT-4,> 100 µM (inactive)
same,GI50,KM12,27.2 µM (inactive)
same,GI50,OVCAR-4,32.6 µM (inactive)
same,GI50,MDA-MB-231,24.9 µM (inactive)
same,GI50,SN12C,28.6 µM (inactive)
same,GI50,786-0,20.4 µM (inactive)
same,GI50,OVCAR-3,20.3 µM (inactive)
same,GI50,SK-OV-3,36.2 µM (inactive)
same,GI50,MDA-N,21.9 µM (inactive)
same,GI50,NCI-H522,21.2 µM (inactive)
same,GI50,OVCAR-8,15 µM (inactive)
same,GI50,ACHN,43.6 µM (inactive)
same,GI50,HOP-92,18.4 µM (inactive)
same,GI50,HOP-62,40.8 µM (inactive)
CSc1cc(Cl)c(C)cc1S(=O)(=O)NC(=O)NNc1ccc(F)cc1,GI50,HCT-15,> 100 µM
same,GI50,SW-620,> 100 µM (inactive)
same,GI50,MOLT-4,> 100 µM (inactive)
same,GI50,KM12,> 100 µM (inactive)
same,GI50,OVCAR-4,> 100 µM (inactive)
same,GI50,MDA-MB-231,> 100 µM (inactive)
same,GI50,K562,> 100 µM (inactive)
same,GI50,SN12C,> 100 µM (inactive)
same,GI50,786-0,> 100 µM (inactive)
same,GI50,OVCAR-3,> 100 µM (inactive)
same,GI50,SK-OV-3,> 100 µM (inactive)
same,GI50,MDA-N,> 100 µM (inactive)
same,GI50,NCI-H522,> 100 µM (inactive)
same,GI50,OVCAR-8,> 100 µM (inactive)
same,GI50,ACHN,66.8 µM (inactive)
same,GI50,HOP-62,> 100 µM (inactive)
Cn1c(=O)c2[nH]c(C3CC(=O)CC(c4nc5c([nH]4)c(=O)n(C)c(=O)n5C)N3)nc2n(C)c1=O (centres undefined),GI50,HCT-15,> 100 µM
same,GI50,NCI-H23,> 100 µM (inactive)
same,GI50,SW-620,> 100 µM (inactive)
same,GI50,HL-60,> 100 µM (inactive)
same,GI50,MOLT-4,71.3 µM (inactive)
same,GI50,KM12,> 100 µM (inactive)
same,GI50,OVCAR-4,> 100 µM (inactive)
same,GI50,MDA-MB-231,> 100 µM (inactive)
same,GI50,K562,72.8 µM (inactive)
same,GI50,SN12C,> 100 µM (inactive)
same,GI50,786-0,> 100 µM (inactive)
same,GI50,OVCAR-3,> 100 µM (inactive)
same,GI50,SK-OV-3,> 100 µM (inactive)
same,GI50,MDA-N,> 100 µM (inactive)
same,GI50,NCI-H522,> 100 µM (inactive)
same,GI50,OVCAR-8,> 100 µM (inactive)
same,GI50,ACHN,> 100 µM (inactive)
same,GI50,HOP-62,> 100 µM (inactive)
C/C(=N\Nc1nc2ccccc2s1)c1cccnn1,GI50,HCT-15,0.333 µM
same,GI50,NCI-H23,2.61 µM (inactive)
same,GI50,SW-620,3.69 µM (inactive)
same,GI50,MOLT-4,3.91 µM (inactive)
same,GI50,KM12,2.77 µM (inactive)
same,GI50,OVCAR-4,76 µM (inactive)
same,GI50,MDA-MB-231,2.28 µM (inactive)
same,GI50,K562,3.23 µM (inactive)
same,GI50,SN12C,2.42 µM (inactive)
same,GI50,786-0,1.26 µM (inactive)
same,GI50,OVCAR-3,0.406 µM (active)
same,GI50,SK-OV-3,4.29 µM (inactive)
same,GI50,MDA-N,8.63 µM (inactive)
same,GI50,NCI-H522,1.72 µM (inactive)
same,GI50,OVCAR-8,1.66 µM (inactive)
same,GI50,ACHN,0.718 µM (active)
same,GI50,HOP-92,2.32 µM (inactive)
same,GI50,HOP-62,1.63 µM (inactive)
